Data from paper PMC3252466 (Chirality, 2011).

Legend:
human CYP2C9 = human CYP2C9 (Homo sapiens, UniProt P11712); conditions: read-out: IC50 CYP2C9; recombinant human CYP2C9 15 nM, 150 μM MFC, 45 min, 37°C; mean (95% confidence interval)
human CYP2C19 = human CYP2C19 (Homo sapiens, UniProt P33261); conditions: read-out: IC50 CYP2C19; recombinant human CYP2C19 7.5 nM, 25 μM CEC, 30 min, 37°C; mean (95% confidence interval)
CYP2B6 = CYP2B6 (Homo sapiens, UniProt P20813); conditions: concentrations up to 10 μM; pooled HLMs, 100 μM bupropion; data not shown
Sequence of CYP2B6 (P20813 whole entry): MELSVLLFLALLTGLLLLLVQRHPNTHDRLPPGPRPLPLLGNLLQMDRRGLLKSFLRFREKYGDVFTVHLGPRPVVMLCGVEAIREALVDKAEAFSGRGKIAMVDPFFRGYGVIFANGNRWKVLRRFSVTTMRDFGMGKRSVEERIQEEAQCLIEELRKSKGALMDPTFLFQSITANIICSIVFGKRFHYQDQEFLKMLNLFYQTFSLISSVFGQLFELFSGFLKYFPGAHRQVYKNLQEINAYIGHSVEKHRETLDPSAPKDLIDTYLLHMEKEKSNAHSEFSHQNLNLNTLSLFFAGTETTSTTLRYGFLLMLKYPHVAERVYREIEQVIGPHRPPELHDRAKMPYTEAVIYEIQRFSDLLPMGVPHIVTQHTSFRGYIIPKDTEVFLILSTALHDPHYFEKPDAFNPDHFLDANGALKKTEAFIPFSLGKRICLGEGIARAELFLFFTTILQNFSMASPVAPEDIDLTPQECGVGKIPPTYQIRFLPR

Sequence of human CYP2C9 (P11712 whole entry): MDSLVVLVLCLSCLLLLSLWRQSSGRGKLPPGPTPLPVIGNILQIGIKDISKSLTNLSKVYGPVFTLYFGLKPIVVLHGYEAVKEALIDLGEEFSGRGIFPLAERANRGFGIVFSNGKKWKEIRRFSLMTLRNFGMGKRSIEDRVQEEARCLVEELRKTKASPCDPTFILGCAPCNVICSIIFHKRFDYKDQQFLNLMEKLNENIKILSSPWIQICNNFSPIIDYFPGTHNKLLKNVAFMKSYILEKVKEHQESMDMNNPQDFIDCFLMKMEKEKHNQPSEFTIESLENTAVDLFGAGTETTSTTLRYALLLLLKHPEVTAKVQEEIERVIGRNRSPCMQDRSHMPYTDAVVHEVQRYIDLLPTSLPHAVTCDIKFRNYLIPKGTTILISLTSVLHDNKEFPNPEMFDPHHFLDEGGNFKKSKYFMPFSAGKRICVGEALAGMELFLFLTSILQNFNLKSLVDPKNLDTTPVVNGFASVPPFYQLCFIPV
Sequence of human CYP2C19 (P33261 whole entry): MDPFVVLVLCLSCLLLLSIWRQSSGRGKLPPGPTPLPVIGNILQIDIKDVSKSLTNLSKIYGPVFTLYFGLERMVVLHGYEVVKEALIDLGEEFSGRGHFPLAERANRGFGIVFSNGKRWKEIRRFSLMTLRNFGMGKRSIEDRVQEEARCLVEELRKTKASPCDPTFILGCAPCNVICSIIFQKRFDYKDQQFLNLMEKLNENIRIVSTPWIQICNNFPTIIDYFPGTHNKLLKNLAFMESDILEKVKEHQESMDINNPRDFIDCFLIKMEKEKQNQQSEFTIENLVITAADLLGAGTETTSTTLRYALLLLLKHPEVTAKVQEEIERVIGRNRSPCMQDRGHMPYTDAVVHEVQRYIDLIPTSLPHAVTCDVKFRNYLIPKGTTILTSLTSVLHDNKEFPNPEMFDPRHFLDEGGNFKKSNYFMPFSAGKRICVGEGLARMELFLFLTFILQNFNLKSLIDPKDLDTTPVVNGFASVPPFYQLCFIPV

Molecule | IC50 (human CYP2C9) | IC50 (human CYP2C19) | Inhibition of CYP2B6 (CYP2B6)
O=C1C[C@H](c2ccc(O)cc2)Oc2cc(O)cc(O)c21 [(R)-naringenin] | 1600 nM | 4900 nM | 
O=C1C[C@@H](c2ccc(O)cc2)Oc2cc(O)cc(O)c21 [(S)-naringenin] | 3400 nM | 1200 nM | 
naringenin [rac-naringenin] |  |  | No appreciable inhibition
